In US9771343B2, “2-alkyl-or-aryl-substituted tanshinone derivatives, and preparation method and application thereof” (Hangzhou Bensheng Pharmaceutical Co., Ltd., priority 2011, dated 2017):
Values after ≈ are worked out from the molar mass of the structure shown.

Key:
[1] = test system: RKO (human colon adenocarcinoma cell); assay: MTT cell growth inhibition, RKO cells, 72 h; assay type: cell-based
Description: (§1) The standard sample of tanshinone I (TA) and the 2-alkyl- or 2-aromatic-substituted tanshinone I derivatives of the present invention are sufficiently dissolved in dimethylsulfoxide to produce a stock solution of 10 mg/mL, which is refrigerated at 4° C. and stored in dark, and is diluted with a cell culture medium to the desired concentration prior to experimentation.
(§2) Obtaining 6000 well-growing human solid tumor cells and inoculating them into wells of a 96-well cell culture plate. The culture medium is DMEM High Glucose cell culture medium containing 10% fetal bovine serum. The plate is placed in a carbon dioxide cell incubator (5% CO2) at 37° C. and incubated for 24 hours. After adding the 2-alkyl- or 2-aromatic-substituted tanshinone I derivatives of different concentrations and mixing uniformly, the plate is placed in a carbon dioxide cell incubator (5% CO2) at 37° C. and incubated for 72 hours. Then the viable cell concentration is determined by MTT method. In this experiment, the cell viability in control group (not treated with any compound) is set as 100%, and the cell viability (%) after treatment by the compounds and the half maximum inhibitory concentration for the leukemia cell at 72 hours (IC50 value of 72 hours, μg/mL) are calculated.

[2] = test system: Becap37 (human breast cancer cell); assay: MTT cell growth inhibition, Becap37 cells, 72 h; assay type: cell-based
Description: as §1, §2

[3] = test system: Hep G2 (human liver cancer cell); assay: MTT cell growth inhibition, Hep G2 cells, 72 h; assay type: cell-based
Description: as §1, §2

[4] = test system: NB4 (acute promyelocytic leukemia, AML); assay: MTT cell growth inhibition, NB4 leukemia cells, 72 h; assay type: cell-based; conditions: NB4, 72 h
Description: as §1, with “with” for “with a”, “to a” for “to the”
as §2, with “leukemia” for “human solid tumor”, “the RPMI-1640” for “DMEM High Glucose”, “serum.” for “serum. The plate is placed in a carbon dioxide cell incubator (5% CO2) at 37° C. and incubated for 24 hours.”, “adding on the second day” for “adding”, “uniformly, placing” for “uniformly,”, “plate” for “plate is placed”

A549 (human lung cancer) = assay: MTT cell growth inhibition, A549 cells, 72 h; assay type: cell-based; conditions: Homo sapiens, A549, 72 h
Description: as §1, §2

[5] = test system: MGC 803 (human gastric cancer cell); assay: MTT cell growth inhibition, MGC 803 cells, 72 h; assay type: cell-based; conditions: Homo sapiens, MGC-803, 72 h
Description: as §1, §2

[6] = test system: RPMI8226 (multiple myeloma); assay: MTT cell growth inhibition, RPMI8226 multiple myeloma cells, 72 h; assay type: cell-based, human
Description: as §1, with “with” for “with a”, “to a” for “to the”
as §2, with “leukemia” for “human solid tumor”, “the RPMI-1640” for “DMEM High Glucose”, “serum.” for “serum. The plate is placed in a carbon dioxide cell incubator (5% CO2) at 37° C. and incubated for 24 hours.”, “adding on the second day” for “adding”, “uniformly, placing” for “uniformly,”, “plate” for “plate is placed”

[7] = test system: Jurkat (acute lymphoblastic leukemia, ALL); assay: MTT cell growth inhibition, Jurkat leukemia cells, 72 h; assay type: cell-based
Description: as §1, with “with” for “with a”, “to a” for “to the”
as §2, with “leukemia” for “human solid tumor”, “the RPMI-1640” for “DMEM High Glucose”, “serum.” for “serum. The plate is placed in a carbon dioxide cell incubator (5% CO2) at 37° C. and incubated for 24 hours.”, “adding on the second day” for “adding”, “uniformly, placing” for “uniformly,”, “plate” for “plate is placed”

PC-3 (prostate cancer) = assay: MTT cell growth inhibition, PC-3 cells, 72 h; assay type: cell-based, human; conditions: Homo sapiens, PC-3, 72 h
Description: as §1, §2

[8] = test system: K562/adr (drug-resistant, chronic myeloid leukemia, CML); assay: MTT cell growth inhibition, K562/adr leukemia cells, 72 h; assay type: cell-based; conditions: Homo sapiens, K562/Adr
Description: as §1, with “with” for “with a”, “to a” for “to the”
as §2, with “leukemia” for “human solid tumor”, “the RPMI-1640” for “DMEM High Glucose”, “serum.” for “serum. The plate is placed in a carbon dioxide cell incubator (5% CO2) at 37° C. and incubated for 24 hours.”, “adding on the second day” for “adding”, “uniformly, placing” for “uniformly,”, “plate” for “plate is placed”

[9] = test system: CaES-17 (esophageal cancer cell); assay: MTT cell growth inhibition, CaES-17 cells, 72 h; assay type: cell-based, human; conditions: Homo sapiens, CaEs17, CaEs-17, 72 h
Description: as §1, §2

[10] = test system: CNE (nasopharyngeal carcinoma cell); assay: MTT cell growth inhibition, CNE cells, 72 h; assay type: cell-based, human
Description: as §1, §2

MG63 (osteosarcoma) = assay: MTT cell growth inhibition, MG63 cells, 72 h; assay type: cell-based, human; conditions: Homo sapiens, MG-63, 72 h
Description: as §1, §2

[11] = test system: Hep-2 (laryngeal carcinoma); assay: MTT cell growth inhibition, Hep-2 cells, 72 h; assay type: cell-based, human; conditions: Homo sapiens, HEp-2, 72 h
Description: as §1, §2

[12] = test system: Kasumi-1 (acute myeloid leukemia M2 type, AML-M2); assay: MTT cell growth inhibition, Kasumi-1 leukemia cells, 72 h; assay type: cell-based; conditions: Homo sapiens, Kasumi-1, 72 h
Description: as §1, with “with” for “with a”, “to a” for “to the”
as §2, with “leukemia” for “human solid tumor”, “the RPMI-1640” for “DMEM High Glucose”, “serum.” for “serum. The plate is placed in a carbon dioxide cell incubator (5% CO2) at 37° C. and incubated for 24 hours.”, “adding on the second day” for “adding”, “uniformly, placing” for “uniformly,”, “plate” for “plate is placed”

[13] = test system: PANC-1 (pancreatic cancer); assay: MTT cell growth inhibition, PANC-1 cells, 72 h; assay type: cell-based, human; conditions: Homo sapiens, PANC-1, 72 h
Description: as §1, §2

[14] = test system: SK-OV-3 (ovarian cancer cell); assay: MTT cell growth inhibition, SK-OV-3 cells, 72 h; assay type: cell-based, human
Description: as §1, §2

[15] = test system: Hela (human cervical cancer cell); assay: MTT cell growth inhibition, Hela cells, 72 h; assay type: cell-based
Description: as §1, §2

[16] = test system: H9 (acute lymphoblastic leukemia, ALL); assay: MTT cell growth inhibition, H9 leukemia cells, 72 h; assay type: cell-based; conditions: H9, 72 h
Description: as §1, with “with” for “with a”, “to a” for “to the”
as §2, with “leukemia” for “human solid tumor”, “the RPMI-1640” for “DMEM High Glucose”, “serum.” for “serum. The plate is placed in a carbon dioxide cell incubator (5% CO2) at 37° C. and incubated for 24 hours.”, “adding on the second day” for “adding”, “uniformly, placing” for “uniformly,”, “plate” for “plate is placed”

[17] = test system: U87 MG (malignant glioma cell); assay: MTT cell growth inhibition, U87 MG cells, 72 h; assay type: cell-based, human
Description: as §1, §2

## Cc1c(-c2ccc(OCC(O)CO)cc2)oc2c1C(=O)C(=O)c1c-2ccc2c(C)cccc12 (stereo not shown) [BS-TA-301]
[1]; Homo sapiens, RKO, 72 h, read-out: IC50
  IC50: 0.87 mg/L (≈ 1.97 µM)
[1]; Homo sapiens, RKO, 72 h, read-out: IC90
  IC90: 26.6 mg/L (≈ 60 µM)
[1]; Table 2
  anti-RKO activity (in words): superior to that of tanshinone I per se
[2]; Homo sapiens, Becap-37, 72 h, read-out: IC50
  IC50: 1.99 mg/L (≈ 4.5 µM)
[2]; Homo sapiens, Becap-37, 72 h, read-out: IC90
  IC90: 7.83 mg/L (≈ 17.7 µM)
[2]; Table 2
  anti-Becap37 activity (in words): superior to that of tanshinone I per se
[3]; Homo sapiens, HepG2, Hep G2, 72 h, read-out: IC50
  IC50: 2.09 mg/L (≈ 4.72 µM)
[3]; Homo sapiens, HepG2, Hep G2, 72 h, read-out: IC90
  IC90: 16.3 mg/L (≈ 36.9 µM)
[3]; Table 2
  anti-Hep G2 activity (in words): superior to that of tanshinone I per se
[4]; read-out: IC50
  IC50: 0.31 mg/L (≈ 0.701 µM)
[4]; read-out: IC90
  IC90: 3.22 mg/L (≈ 7.28 µM)
A549 (human lung cancer); read-out: IC50
  IC50: 6.68 mg/L (≈ 15.1 µM)
A549 (human lung cancer); read-out: IC90
  IC90: 25.9 mg/L (≈ 58.5 µM)
[5]; read-out: IC50
  IC50: 1.74 mg/L (≈ 3.93 µM)
[5]; read-out: IC90
  IC90: 16 mg/L (≈ 36.2 µM)
[6]; Homo sapiens, RPMI 8226, 72 h, read-out: IC50
  IC50: 0.58 mg/L (≈ 1.31 µM)
[6]; Homo sapiens, RPMI 8226, 72 h, read-out: IC90
  IC90: 16.2 mg/L (≈ 36.6 µM)
[6]; as compared with tanshinone I per se
  anti-RPMI8226 cell line activity (in words): improves the anti-RPMI8226 cell line activity significantly
[7]; Homo sapiens, 72 h, read-out: IC50
  IC50: 0.48 mg/L (≈ 1.08 µM)
[7]; Homo sapiens, 72 h, read-out: IC90
  IC90: > 16 mg/L
[7]; vs tanshinone I
  improvement of anti-Jurkat activity as compared with tanshinone I per se: more than 3 fold
PC-3 (prostate cancer); read-out: IC50
  IC50: 9.94 mg/L (≈ 22.5 µM)
PC-3 (prostate cancer); read-out: IC90
  IC90: > 16 mg/L
[8]; read-out: IC50
  IC50: 1.36 mg/L (≈ 3.07 µM)
[8]; read-out: IC90
  IC90: 7.61 mg/L (≈ 17.2 µM)
[9]; read-out: IC50
  IC50: 3.78 mg/L (≈ 8.54 µM)
[9]; read-out: IC90
  IC90: > 16 mg/L
[10]; Homo sapiens, CNE, 72 h, read-out: IC50
  IC50: 3.2 mg/L (≈ 7.23 µM)
[10]; Homo sapiens, CNE, 72 h, read-out: IC90
  IC90: 45 mg/L (≈ 102 µM)
[10]; Table 2
  anti-CNE activity (in words): good antitumor activity
MG63 (osteosarcoma); read-out: IC50
  IC50: 1.62 mg/L (≈ 3.66 µM)
MG63 (osteosarcoma); read-out: IC90
  IC90: 7.44 mg/L (≈ 16.8 µM)
[11]; read-out: IC50
  IC50: 5.27 mg/L (≈ 11.9 µM)
[11]; read-out: IC90
  IC90: > 16 mg/L
[12]; read-out: IC50
  IC50: 0.97 mg/L (≈ 2.19 µM)
[12]; read-out: IC90
  IC90: 31.1 mg/L (≈ 70.3 µM)
[13]; read-out: IC50
  IC50: 7.34 mg/L (≈ 16.6 µM)
[13]; read-out: IC90
  IC90: 24.1 mg/L (≈ 54.5 µM)
[14]; Homo sapiens, SK-OV-3, 72 h, read-out: IC50
  IC50: 11.7 mg/L (≈ 26.5 µM)
[14]; Homo sapiens, SK-OV-3, 72 h, read-out: IC90
  IC90: > 16 mg/L
[14]; Table 2
  anti-SK-OV-3 activity (in words): superior to that of tanshinone I per se
[15]; Homo sapiens, HeLa, 72 h, read-out: IC50
  IC50: 1.07 mg/L (≈ 2.42 µM)
[15]; Homo sapiens, HeLa, 72 h, read-out: IC90
  IC90: 24 mg/L (≈ 54.3 µM)
[15]; Table 2
  anti-Hela activity (in words): superior to that of tanshinone I per se
[16]; read-out: IC50
  IC50: 3 mg/L (≈ 6.78 µM)
[16]; read-out: IC90
  IC90: > 16 mg/L
[17]; Homo sapiens, U-87 MG, U87-MG, 72 h, read-out: IC50
  IC50: 2.85 mg/L (≈ 6.44 µM)
[17]; Homo sapiens, U-87 MG, U87-MG, 72 h, read-out: IC90
  IC90: 15.4 mg/L (≈ 34.9 µM)
[17]; Table 2
  anti-U87 MG activity (in words): superior to that of tanshinone I per se
